# Source: patent publication US8471061B2 (priority 2004, dated 2013)
# Values joined by “and” are separate entries in the source; they are usually repeats but may differ in a detail not shown here. Equal entries are not always repeated. Structures can show the parent of a compound that is named as a salt. Where two headings read alike, the source gives them in different places.
# What was measured:
# [1] = tested on: Salmonella typhimurium TA 98; test: Back mutation test, TA98; format: cell-based
# Description: (§1) A test was carried out in accordance with the “Standard of Mutagenicity Tests Using Microorganisms” (Ministry of Labor Notification No. 77, 1988) (partial revision by Ministry of Labor Notification No. 67, 1997) and “Regarding the Tests Concerning Novel Chemical Substances and the like” (dated Nov. 21, 2003: Yaku-Shoku-Hatsu No. 1121002, 2003.11.13 Sei-Kyoku, No. 2, Kan-Ho-Ki-Hatsu No. 031121002). To 0.1 ml of a solution prepared by dissolving 5% (w/v) of 5-aminolevulinic acid phosphate in distilled water (Wako Pure Chemical Industries), 0.5 ml of 0.1 M sodium-phosphate buffer (pH 7.4) (0.5 ml S9 mix in the case of metabolism activation test) was added, and 0.1 ml of each test strain suspension (5 strains of histidine-less Salmonella typhimurium TA 100, TA 98, TA 1535 and TA 1537 and tryptophan-less Escherichia coli WP2 uvrA were used (Japan Bioassay Research Center)) was further added thereto, followed by pre-incubation at 37° C. for 20 minutes while shaking. After completion of the culturing, 2.0 ml of top agar kept at 45° C. in advance was added thereto and layered on a minimum glucose agar plate medium. In this case, 2 plates were arranged for each dosage. However, 3 plates were arranged for a solvent control (negative control). […] In the measurement, an inner area of about 80 mm in diameter of a plate of 86 mm in diameter (84 mm in inner diameter) was measured using an automatic colony analyzer (CA-11: manufactured by System Science), and calculated by carrying out area correction and counting loss correction using a personal computer. However, since reliability of the automatic colony analyzer is reduced when the number of colonies is 1,500 or more, 5 points in the plate were manually measured under the stereoscopic microscope to carry out area correction of the average value. A dosage setting test was carried out on 7 dosages diluted at a common ratio of 4, using a dosage of 5,000 μg/plate as the maximum which is the maximum dosage defined by the guideline. […] Growth inhibition of the strains by this substance to be tested was not found. […] Thus, this test was carried out by setting 5 dosages diluted at a common ratio of 2, using a dosage of 5,000 μg/plate as the maximum which is the maximum dosage defined by the guideline.
# [2] = tested on: Salmonella typhimurium TA 100; test: Back mutation test, TA100; format: cell-based
# Description: as §1
# [3] = tested on: Escherichia coli WP2 uvrA; test: Back mutation test, WP2uvrA; format: cell-based
# Description: as §1
# [4] = tested on: Salmonella typhimurium TA 1537; details: TA1537; for Positive control, number of back mutation, single plates: dihydrochloride
# Description: (§2) A test was carried out in accordance with the “Standard of Mutagenicity Tests Using Microorganisms” (Ministry of Labor Notification No. 77, 1988) (partial revision by Ministry of Labor Notification No. 67, 1997) and “Regarding the Tests Concerning Novel Chemical Substances and the like” (dated Nov. 21, 2003: Yaku-Shoku-Hatsu No. 1121002, 2003.11.13 Sei-Kyoku, No. 2, Kan-Ho-Ki-Hatsu No. 031121002). To 0.1 ml of a solution prepared by dissolving 5% (w/v) of 5-aminolevulinic acid phosphate in distilled water (Wako Pure Chemical Industries), 0.5 ml of 0.1 M sodium-phosphate buffer (pH 7.4) (0.5 ml S9 mix in the case of metabolism activation test) was added, and 0.1 ml of each test strain suspension (5 strains of histidine-less Salmonella typhimurium TA 100, TA 98, TA 1535 and TA 1537 and tryptophan-less Escherichia coli WP2 uvrA were used (Japan Bioassay Research Center)) was further added thereto, followed by pre-incubation at 37° C. for 20 minutes while shaking. After completion of the culturing, 2.0 ml of top agar kept at 45° C. in advance was added thereto and layered on a minimum glucose agar plate medium. In this case, 2 plates were arranged for each dosage. However, 3 plates were arranged for a solvent control (negative control). […] In the measurement, an inner area of about 80 mm in diameter of a plate of 86 mm in diameter (84 mm in inner diameter) was measured using an automatic colony analyzer (CA-11: manufactured by System Science), and calculated by carrying out area correction and counting loss correction using a personal computer. However, since reliability of the automatic colony analyzer is reduced when the number of colonies is 1,500 or more, 5 points in the plate were manually measured under the stereoscopic microscope to carry out area correction of the average value. A dosage setting test was carried out on 7 dosages diluted at a common ratio of 4, using a dosage of 5,000 μg/plate as the maximum which is the maximum dosage defined by the guideline.
# [5] = tested on: Salmonella typhimurium TA 1535; details: TA1535
# Description: as §2
# [6] = tested on: radish; test: Plant activating effect, foliar application, radish; format: in vivo; details: 21 days, 12 seeds
# Description: After 600 g of upland soil was packed in a porcelain pot of 12 cm in inner diameter, 12 grains of radish seeds were sowed therein, covered with 5 mm in depth of the soil and allowed to grow in a green house. Foliar application treatment was carried out once a day using the following application liquids. Conditions of the leaves 21 days thereafter were observed.
# [7] = tested on: spiderwort Commelina communis; test: Plant activating effect, foliar application, spiderwort; format: in vivo; details: 21 days, 12 plants
# Description: A total of 12 pots, in which 600 g of volcanic ash soil was packed in a porcelain pot of 12 cm in inner diameter, and 1 plant of a spiderwort Commelina communis grown to a height of 15 cm was planted in 1 pot, were prepared and placed under a constant temperature environment of 20° C., and foliar application treatment was carried out once a day using the following application liquids. Conditions of the leaves 21 days thereafter were observed.
# [8] = S9 Mix not required, 0.1 μg/plate
# [9] = S9 Mix not required, 0.01 μg/plate
# [10] = S9 Mix not required, 1.0 μg/plate
# [11] = S9 Mix not required, 0.5 μg/plate
structure (smiles),measurement,setting,value
"NC(=O)C(=Cc1ccc([N+](=O)[O-])o1)c1ccco1 [AF-2, 2-(2-furyl)-3-(5-nitro-2-furyl)acrylamide, reference compound]","Positive control, number of back mutation, mean (in parentheses)",[1]; [8],(568) Colonies/plate
same,"Positive control, number of back mutation, single plates",[1]; [8],575 Colonies/plate and 560 Colonies/plate
same,"Positive control, number of back mutation, mean (in parentheses)","[1]; S9 Mix required, 0.5 μg/plate",(665) Colonies/plate
same,"Positive control, number of back mutation, single plates","[1]; S9 Mix required, 0.5 μg/plate",661 Colonies/plate and 668 Colonies/plate
same,"Positive control, number of back mutation, mean (in parentheses)",[2]; [9],(572) Colonies/plate
same,"Positive control, number of back mutation, single plates",[2]; [9],564 Colonies/plate and 580 Colonies/plate
same,"Positive control, number of back mutation, mean (in parentheses)","[2]; S9 Mix required, 1.0 μg/plate",(1230) Colonies/plate
same,"Positive control, number of back mutation, single plates","[2]; S9 Mix required, 1.0 μg/plate",1275 Colonies/plate and 1184 Colonies/plate
same,"Positive control, number of back mutation, mean (in parentheses)",[3]; [9],(152) Colonies/plate
same,"Positive control, number of back mutation, single plates",[3]; [9],155 Colonies/plate and 149 Colonies/plate
same,"Positive control, number of back mutation, mean (in parentheses)","[3]; S9 Mix required, 10.0 μg/plate",(1267) Colonies/plate
same,"Positive control, number of back mutation, single plates","[3]; S9 Mix required, 10.0 μg/plate",1230 Colonies/plate and 1304 Colonies/plate
"COc1ccc2nc3cc(Cl)ccc3c(NCCCNCCCl)c2c1 [ICR-191, 6-chloro-9-[3-(2-chloroethylamine)-propylamino]-2-methoxyacridine dihydrochloride, reference compound]","Positive control, number of back mutation, mean (in parentheses)",[4]; [10],(4001) Colonies/plate
same,"Positive control, number of back mutation, single plates",[4]; [10],4068 Colonies/plate and 3934 Colonies/plate
same,"Positive control, number of back mutation, mean (in parentheses)","[4]; S9 Mix required, 2.0 μg/plate",(262) Colonies/plate
same,"Positive control, number of back mutation, single plates","[4]; S9 Mix required, 2.0 μg/plate",257 Colonies/plate and 267 Colonies/plate
"[N-]=[N+]=[N-] [NaN3, sodium azide, reference compound]","Positive control, number of back mutation, mean (in parentheses)",[5]; [11],(210) Colonies/plate
same,"Positive control, number of back mutation, single plates",[5]; [11],203 Colonies/plate and 216 Colonies/plate
same,"Positive control, number of back mutation, mean (in parentheses)","[5]; S9 Mix required, 2.0 μg/plate",(138) Colonies/plate
same,"Positive control, number of back mutation, single plates","[5]; S9 Mix required, 2.0 μg/plate",137 Colonies/plate and 138 Colonies/plate
Cc1ccc(S(=O)(=O)O)cc1 [p-toluenesulfonic acid],plants judged 0: Abnormality was not found on the leaf surface,[6]; 1 ppm in tap water,1 plant^ plants
same,plants judged 1: A region discolored to yellow was found on the leaf surface,[6]; 1 ppm in tap water,2 plants
same,plants judged 2: A necrotic region was found on the leaf surface,[6]; 1 ppm in tap water,9 plants
same,plants judged 0: Abnormality was not found on the leaf surface,[6]; 10 ppm in tap water,1 plant^ plants
same,plants judged 1: A region discolored to yellow was found on the leaf surface,[6]; 10 ppm in tap water,2 plants
same,plants judged 2: A necrotic region was found on the leaf surface,[6]; 10 ppm in tap water,9 plants
same,plants judged 0: Abnormality was not found on the leaf surface,[6]; 100 ppm in tap water,0 plant^ plants
same,plants judged 1: A region discolored to yellow was found on the leaf surface,[6]; 100 ppm in tap water,3 plants
same,plants judged 2: A necrotic region was found on the leaf surface,[6]; 100 ppm in tap water,9 plants
O=[N+]([O-])[O-].[Na+] [sodium nitrate],plants judged 0: Abnormality was not found on the leaf surface,[6]; 1 ppm in tap water,2 plants
same,plants judged 1: A region discolored to yellow was found on the leaf surface,[6]; 1 ppm in tap water,6 plants
same,plants judged 2: A necrotic region was found on the leaf surface,[6]; 1 ppm in tap water,4 plants
same,plants judged 0: Abnormality was not found on the leaf surface,[6]; 10 ppm in tap water,2 plants
same,plants judged 1: A region discolored to yellow was found on the leaf surface,[6]; 10 ppm in tap water,4 plants
same,plants judged 2: A necrotic region was found on the leaf surface,[6]; 10 ppm in tap water,6 plants
same,plants judged 0: Abnormality was not found on the leaf surface,[6]; 100 ppm in tap water,2 plants
same,plants judged 1: A region discolored to yellow was found on the leaf surface,[6]; 100 ppm in tap water,5 plants
same,plants judged 2: A necrotic region was found on the leaf surface,[6]; 100 ppm in tap water,5 plants
O=P(O)(O)O [sodium phosphate],plants judged 0: Abnormality was not found on the leaf surface,[7]; 1 ppm in tap water,4 plants
same,plants judged 1: A region discolored to yellow was found on the leaf surface,[7]; 1 ppm in tap water,3 plants
same,plants judged 2: A necrotic region was found on the leaf surface,[7]; 1 ppm in tap water,5 plants
same,plants judged 0: Abnormality was not found on the leaf surface,[7]; 10 ppm in tap water,2 plants
same,plants judged 1: A region discolored to yellow was found on the leaf surface,[7]; 10 ppm in tap water,4 plants
same,plants judged 2: A necrotic region was found on the leaf surface,[7]; 10 ppm in tap water,6 plants
same,plants judged 0: Abnormality was not found on the leaf surface,[7]; 100 ppm in tap water,3 plants
same,plants judged 1: A region discolored to yellow was found on the leaf surface,[7]; 100 ppm in tap water,2 plants
same,plants judged 2: A necrotic region was found on the leaf surface,[7]; 100 ppm in tap water,7 plants
